These results are taken from patent US12360023B2, “Method of pretreating blood sample” (LABTECHS Inc., priority 2017, dated 2025).

The test system of the series is Streptococcus agalactiae. Nature of the series: Viability of bacteria under detergent treatment. The format is cell-based.

In the case of `CCCCCCCCCCCCOS(=O)(=O)[O-].[Na+]` [SDS, sodium dodecyl sulfate], the “killing of bacteria by detergent” value is, setting by setting: (SDS concentration 0.05%) “does not kill”; (SDS concentration 0.1% or 0.2%) “largely killed”.
